System: HT-29 cells
Assay: In vitro assay for protection of HT-29 cells from necroptosis (TNFα/Smac mimetic/Z-VAD-FMK induction, CCK8 readout)
Type: cell-based
Conditions: TNFα/Smac mimetic/Z-VAD-FMK for 24 h; inhibition of necroptosis; read-out: HT-29 (EC50)

SMILES	EC50 [nM]
CCNCC(=O)Nc1nc2cc(-c3ccc4c(c3)c(C(=O)N[C@@H](C)c3ccc(F)cc3)cn4C)ccn2n1 [Compound 76]	< 1
C[C@H](NC(=O)c1cn(C)c2ccc(-c3ccn4nc(NC(=O)CNC5CCOC5)nc4c3)cc12)c1ccc(F)cc1 (stereo partly shown) [Compound 77]	< 1
C[C@H](NC(=O)c1cn(C)c2ccc(-c3ccn4nc(NC(=O)CN(C)C)nc4c3)cc12)c1ccc(Cl)cc1 [Compound 78]	< 1
C[C@H](NC(=O)c1cn(C)c2ccc(-c3ccn4nc(NC(=O)CN5CC6CC5CO6)nc4c3)cc12)c1ccc(Cl)cc1 (stereo partly shown) [Compound 79]	< 1
C[C@H](NC(=O)c1cn(C)c2ccc(-c3ccn4nc(NC(=O)CN5CC(F)(F)C5)nc4c3)cc12)c1ccc(Cl)cc1 [Compound 80]	< 1
C[C@H](NC(=O)c1cn(C)c2ccc(-c3ccn4nc(NC(=O)CN5CCOC[C@H]5C)nc4c3)cc12)c1ccc(Cl)cc1 [Compound 81]	< 1
C[C@H](NC(=O)c1cn(C)c2ccc(-c3ccn4nc(NC(=O)CN5CCOC[C@@H]5C)nc4c3)cc12)c1ccc(Cl)cc1 [Compound 82]	< 1
C[C@H](NC(=O)c1cn(C)c2ccc(-c3ccn4nc(NC(=O)CN5CCOCC5)nc4c3)cc12)c1ccc(Cl)cc1 [Compound 83]	< 1
CC1CN(CC(=O)Nc2nc3cc(-c4ccc5c(c4)c(C(=O)N[C@@H](C)c4ccc(Cl)cc4)cn5C)ccn3n2)CCO1 (stereo partly shown) [Compound 84]	< 1
C[C@@H]1CN(CC(=O)Nc2nc3cc(-c4ccc5c(c4)c(C(=O)N[C@@H](C)c4ccc(Cl)cc4)cn5C)ccn3n2)C[C@H](C)O1 [Compound 85]	< 1
C[C@H](NC(=O)c1cn(C)c2ccc(-c3ccn4nc(NC(=O)CN5CCC(F)(F)CC5)nc4c3)cc12)c1ccc(Cl)cc1 [Compound 86]	< 1
C[C@H](NC(=O)c1cn(C)c2ccc(-c3ccn4nc(NC(=O)CN5CCSCC5)nc4c3)cc12)c1ccc(Cl)cc1 [Compound 87]	< 1
C[C@H](NC(=O)c1cn(C)c2ccc(-c3ccn4nc(NC(=O)CN5CCOCC5)nc4c3)cc12)c1ccco1 [Compound 88]	1 to 10
C[C@H](NC(=O)c1cn(C)c2ccc(-c3ccn4nc(NC(=O)CN5CCOCC5)nc4c3)cc12)C(C)(C)C [Compound 90]	1000 to 10000
C[C@H](NC(=O)c1cn(C)c2ccc(-c3ccn4nc(NC(=O)c5cnn(C)c5)nc4c3)cc12)C(C)(C)C [Compound 91]	1000 to 10000
C[C@H](NC(=O)c1cn(C)c2ccc(-c3ccn4nc(NC(=O)C5CC5F)nc4c3)cc12)C(C)(C)C (stereo partly shown) [Compound 92]	100 to 1000
C[C@H](NC(=O)c1cn(C)c2ccc(-c3ccn4nc(NC(=O)C5CC5)nc4c3)cc12)C(C)(C)C [Compound 93]	100 to 1000
Cn1cc(C(=O)N[C@@H](CF)c2ccc(F)cc2)c2cc(-c3ccn4nc(NC(=O)CCl)nc4c3)ccc21 [Compound 94]	< 1
CN1CCN(C(=O)Nc2nc3cc(-c4ccc5c(c4)c(C(=O)N[C@@H](CF)c4ccc(F)cc4)cn5C)ccn3n2)CC1 [Compound 95]	< 1
Cn1cc(C(=O)N[C@@H](CF)c2ccc(F)cc2)c2cc(-c3ccn4nc(NC(=O)CN5CCCCC5)nc4c3)ccc21 [Compound 96]	< 1
COCC(=O)Nc1nc2cc(-c3ccc4c(c3)c(C(=O)N[C@@H](CF)c3ccc(F)cc3)cn4C)ccn2n1 [Compound 97]	< 1
CO[C@@H](C)C(=O)Nc1nc2cc(-c3ccc4c(c3)c(C(=O)N[C@@H](CF)c3ccc(F)cc3)cn4C)ccn2n1 [Compound 98]	< 1

SMILES	EC50 [nM]
CC(C)Nc1nc2cc(-c3ccc4c(c3)c(C(=O)N[C@@H](CF)c3ccc(F)cc3)cn4C)ccn2n1 [Compound 99]	< 1
CN1CC[C@@H](C(=O)Nc2nc3cc(-c4ccc5c(c4)c(C(=O)N[C@@H](CF)c4ccc(F)cc4)cn5C)ccn3n2)C1 [Compound 100]	< 1
CN(C)CC(=O)Nc1nc2cc(-c3ccc4c(c3)c(C(=O)N[C@@H](CF)c3ccc(F)cc3)cn4C)ccn2n1 [Compound 101]	< 1
Cn1cc(C(=O)N[C@@H](CF)c2ccc(F)cc2)c2cc(-c3ccn4nc(NC(=O)C#N)nc4c3)ccc21 [Compound 102]	< 1
Cn1cc(C(=O)N[C@@H](CF)c2ccc(F)cc2)c2cc(-c3ccn4nc(NC(=O)N5CCOCC5)nc4c3)ccc21 [Compound 103]	< 1
Cn1cc(C(=O)N[C@@H](CF)c2ccc(F)cc2)c2cc(-c3ccn4nc(NC(=O)[C@H]5CCCO5)nc4c3)ccc21 [Compound 104]	1000 to 10000
Cn1cc(C(=O)N[C@@H](CF)c2ccc(F)cc2)c2cc(-c3ccn4nc(NC(=O)C5(C)CCC5)nc4c3)ccc21 [Compound 105]	10 to 100
C[C@H](NC(=O)c1cn(C)c2ccc(-c3ccn4nc(NC5CCOC5)nc4c3)cc12)c1ccc(F)cc1 (stereo partly shown) [Compound 107]	< 1
Cn1cc(C(=O)N[C@@H](CF)c2ccc(F)cc2)c2cc(-c3ccn4nc(NCC5CC5)nc4c3)ccc21 [Compound 108]	< 1
Cn1cc(C(=O)N[C@@H](CF)c2ccc(F)cc2)c2cc(-c3ccn4nc(NC(=O)C5CCOC5)nc4c3)ccc21 (stereo partly shown) [Compound 109]	1 to 10
Cn1cc(C(=O)N[C@@H](CF)c2ccc(F)cc2)c2cc(-c3ccn4nc(NC(=O)C5CC5(F)F)nc4c3)ccc21 (stereo partly shown) [Compound 110]	< 1
Cn1cc(C(=O)Nc2nc3cc(-c4ccc5c(c4)c(C(=O)N[C@@H](CF)c4ccc(F)cc4)cn5C)ccn3n2)cn1 [Compound 111]	1 to 10
COC(C)C(=O)Nc1nc2cc(-c3ccc4c(c3)c(C(=O)N[C@@H](CF)c3ccc(F)cc3)cn4C)ccn2n1 (stereo partly shown) [Compound 112]	< 1
Cn1cc(C(=O)N[C@@H](CF)c2ccc(F)cc2)c2cc(-c3ccn4nc(NC(=O)C5CC5F)nc4c3)ccc21 (stereo partly shown) [Compound 113]	1 to 10
Cn1cc(C(=O)N[C@@H](CF)c2ccc(F)cc2)c2cc(-c3ccn4nc(NC(=O)C5CC5)nc4c3)ccc21 [Compound 114]	< 1
C[C@H](NC(=O)c1cn(C)c2ccc(-c3ccn4nc(NC(=O)c5ccnc(F)c5)nc4c3)cc12)c1ccc(F)cc1 [Compound 115]	< 1
C[C@H](NC(=O)c1cn(C)c2ccc(-c3ccn4nc(NC(=O)N5CCOCC5)nc4c3)cc12)c1ccc(F)cc1 [Compound 116]	< 1
C[C@H](NC(=O)c1cn(C)c2ccc(-c3ccn4nc(NC(=O)[C@H]5CCCO5)nc4c3)cc12)c1ccc(F)cc1 [Compound 117]	< 1
C[C@H](NC(=O)c1cn(C)c2ccc(-c3ccn4nc(NC(=O)N5CCOCC5)nc4c3)cc12)c1cccc(F)c1 [Compound 118]	< 1
C[C@H](NC(=O)c1cn(C)c2ccc(-c3ccn4nc(NC(=O)[C@H]5CCCO5)nc4c3)cc12)c1cccc(F)c1 [Compound 119]	< 1
C[C@H](NC(=O)c1cn(C)c2ccc(-c3ccn4nc(NC(=O)c5cnn(C)c5)nc4c3)cc12)c1cccc(F)c1 [Compound 120]	< 1
CN(C)CC(=O)Nc1nc2cc(-c3ccc4c(c3)c(C(=O)N[C@H]3CCc5ccc(F)cc53)cn4C)ccn2n1 [Compound 123]	1 to 10

SMILES	EC50 [nM]
CC(=O)Nc1nc2cc(-c3ccc4c(c3)c(C(=O)N[C@@H]3C[C@H]3c3ccc(F)c(F)c3)cn4C)ccn2n1 [Compound 125]	1000 to 10000
CC(=O)Nc1nc2cc(-c3ccc4c(c3)c(C(=O)N[C@H]3CCc5cc(C#N)ccc53)cn4C)ccn2n1 [Compound 132]	100 to 1000
Cn1cc(C(=O)N[C@H]2CCCc3cc(F)ccc32)c2cc(-c3ccn4nc(NC(=O)[C@H]5CCCO5)nc4c3)ccc21 [Compound 137]	10 to 100
Cn1cc(C(=O)N[C@H]2CCCc3cc(F)ccc32)c2cc(-c3ccn4nc(NC(=O)[C@@H]5CCCO5)nc4c3)ccc21 [Compound 139]	1 to 10
Cn1cc(C(=O)Nc2nc3cc(-c4ccc5c(c4)c(C(=O)N[C@H]4CCCc6cc(F)ccc64)cn5C)ccn3n2)cn1 [Compound 141]	1 to 10
Cn1cc(C(=O)N[C@H]2CCCc3cc(F)ccc32)c2cc(-c3ccn4nc(NC(=O)CC#N)nc4c3)ccc21 [Compound 142]	10 to 100
Cn1cc(C(=O)Nc2nc3cc(-c4ccc5c(c4)c(C(=O)N[C@H]4CCCc6ccc(F)cc64)cn5C)ccn3n2)cn1 [Compound 143]	1 to 10
CC(=O)Nc1nc2cc(-c3ccc4c(c3)c(C(=O)N[C@H]3CCCc5ccc(F)cc53)cn4C)ccn2n1 [Compound 145]	1 to 10
Cn1cc(C(=O)N[C@H]2CCCc3ccc(F)cc32)c2cc(-c3ccn4nc(NC(=O)[C@H]5CCCO5)nc4c3)ccc21 [Compound 146]	10 to 100
Cn1cc(C(=O)NC2(c3ccc(F)cc3)COC2)c2cc(-c3ccn4nc(NC(=O)C5CC5)nc4c3)ccc21 [Compound 148]	10 to 100
Cn1cc(C(=O)Nc2nc3cc(-c4ccc5c(c4)c(C(=O)N4CCOC[C@@H]4c4ccc(F)cc4)cn5C)ccn3n2)cn1 [Compound 149]	< 1
Cn1cc(C(=O)N2CCOC[C@@H]2c2ccc(F)cc2)c2cc(-c3ccn4nc(NC(=O)C5CC5)nc4c3)ccc21 [Compound 151]	< 1
Cn1cc(C(=O)N2CCC[C@H]2c2ccc(F)cc2)c2cc(-c3ccn4nc(NC(=O)N5CCOCC5)nc4c3)ccc21 [Compound 153]	< 1
Cn1cc(C(=O)N2CCC[C@H]2c2ccc(F)cc2)c2cc(-c3ccn4nc(NC(=O)C5CCCO5)nc4c3)ccc21 (stereo partly shown) [Compound 154]	< 1
Cn1cc(C(=O)Nc2nc3cc(-c4ccc5c(c4)c(C(=O)N[C@@H](CF)c4cccc(F)c4)cn5C)ccn3n2)cn1 [Compound 155]	< 1
Cn1cc(C(=O)N2CC(F)(F)CC2c2ccc(F)cc2)c2cc(-c3ccn4nc(NC(=O)C5CC5)nc4c3)ccc21 (stereo not shown) [Compound 158]	1000 to 10000
Cn1cc(C(=O)N2CC(F)(F)CC2c2ccc(F)cc2)c2cc(-c3ccn4nc(NC(=O)C5CCOC5)nc4c3)ccc21 (stereo not shown) [Compound 159]	< 1
Cn1cc(C(=O)N2CC(F)(F)CC2c2ccc(F)cc2)c2cc(-c3ccn4nc(NC(=O)N5CCOCC5)nc4c3)ccc21 (stereo not shown) [Compound 160]	< 1
Cn1cc(C(=O)N[C@H](c2ccc(F)cc2)C(F)F)c2cc(-c3ccn4nc(NC(=O)CN5CCCCC5)nc4c3)ccc21 [Compound 163]	< 1
Cn1cc(C(=O)N[C@H](c2ccc(F)cc2)C(F)F)c2cc(-c3ccn4nc(NC(=O)CC#N)nc4c3)ccc21 [Compound 164]	< 1
